One series deals with MCF7/ADR cells. Briefly: MTT cytotoxicity and drug accumulation in doxorubicin resistant MCF7/ADR cells. It is filed as cell-based. The note with it: for IC50: Homo sapiens, NCI/ADR-RES, 48 h, MCF7/ADR, 48 hrs exposure, MTT. How it is done:
In some embodiments, monolayer doxorubicin sensitive (MCF7) and resistant (MCF7/ADR) cells were then exposed to either doxorubicin or TAT-Dox conjugates at various concentrations (up to 100 μM) for 48 hrs in the presence or absence of 10 μM verapamil. Cell viability was measured by MTT assay. […] Verapamil, a P-glycoprotein inhibitor, was able to restore most of the cytotoxic activities of free doxorubicin.

For series [1] the following is noted: oral administration; cited from earlier work.
For another series, the system named is implanted tumors. Briefly: Tumor regression in tumor-bearing mice, intratumoral injection (RNase series). It is filed as in vivo. The settings on record: excised thirty days (4 weeks) after initial treatment. How it is done: Drugs were administered by intratumoral injection. Injections were started 3 weeks after tumor cell implantation when tumors reached the size about 100 mm^3. Thirty days after initial treatment, mice were sacrificed and their tumors were excised, weighed, and photographed.
For example, in test animals an average tumor weight of 2.92±0.47 g (N=5) was observed 4 weeks after treatment (Lane 4; FIG. 11B) that was statistically indistinguishable from the value of 3.16±0.65 g (Lane 2 in FIG. 11B) of the control group without treatment. […] The addition of protamine to the heparin-inhibited TAT-RNase conjugates completely reversed inhibition and tumor growth was regressed to an insignificant weight of 0.09±0.05 g (Lane 5; FIG. 11B).

The test system of series [2] is MCF-7 cells. Briefly: Cell translocation and uptake kinetics of FITC-labeled LMWP and TAT. It is filed as cell-based. The protocol: Cells were incubated with the FITC-labeled peptides and then lysed. Fluorescence intensities in the supernatants were measured.
In some embodiments, purified LMWP was prepared according to the method described in L.C. Chang et al., AAPS PharmSci., 3(2) Article 17 [2001]. In some additional embodiments, cell internalization characteristics of TAT and LMWP were compared by confocol microscopy using FITC-labeled peptides. Like TAT, after 15 min of incubation with MCF-7 cells at 37° C., more than 70% of the FITC-labeled LMWP entered the cytosol of the MCF-7 cells (FIG. 13). […] The reason for the difference in cell localization remains unclear, however, while the present invention is not limited to any particular mechanism, it is contemplated that TAT, which contains the sequence of the nuclear localization signal (NLS) peptide, can penetrate into the cell's nucleus either through pores on the nuclear envelope, or via binding with certain cytoplasmic components which confer nuclear localization. (L. Chaloin et al., Biochem. Biophys. Res. Commun., 243:601-608 [1998]; and M. A. Zanta M A et al., Proc. Natl. Acad. Sci. USA, 96:91-96 [1999]). In some embodiments, the localization of TAT and TAT-like peptides can be directed to the cytoplasm or to other sites within the cell by making altering portions of its amino acid sequence. (See e.g., M. M. Gottesman et al., Nature Reviews Cancer, 2:48-58 [2002]). In some preferred embodiments, the sequence of the PTD component/subcomponent of the drug delivery composition is selected or modified (e.g., amino acid sequence altered) so that the composition and the therapeutic molecule(s) being carried are localized to the cytoplasm. The present invention contemplates that in certain embodiments the localization of the drug delivery compositions to the cytoplasm aids in the penetration of the therapeutic molecules throughout the targeted tissue (e.g., from the tumor periphery to the tumor core).
FIG. 14 provides a comparison of the rate of cellular uptake of LMWP and TAT. […]

The test system of the next series is CT-26 cells. The series can be described thus: Translocation of rhodamine-labeled gelonin by TAT or LMWP (fluorescence microscopy). The settings on record: CT-26, 2 hrs incubation. It is filed as cell-based. The protocol:
FIGS. 15A and 15B show the translocation of gelonin into the CT-26 cells with the aid of: TAT (FIG. 15A); or LMWP (FIG. 15B). Fluorescent microscopy was conducted on cells treated with rhodamine-labeled TAT- or LMWP-gelonin following 2 hrs of incubation in CT-26 cells.
In some embodiments, studies were preformed to compare the capabilities of LMWP and TAT in protein translocation. In some of these embodiments, the LMWP and TAT peptides were conjugated to gelonin using the PDPH method described herein. To create a -SH group for coupling, LMWP was modified prior to its conjugation by treatment with SPDP and DTT, using the protocol established by J. Carlsson et al., (J. Carlsson et al., Biochem. J., 173:723-737 [1978]). Gelonin was labeled with rhodamine prior to conjugation.

Series [3] has as its system MCF-7 cells. Briefly: Cellular uptake of FITC-labeled gelonin and TAT-Gel (FACS and confocal microscopy). It is filed as cell-based. The settings on record: MCF-7, FITC label, 10 nM, 1 hr at 37° C. The protocol:
FIGS. 7A-7D show the cellular uptake of TAT and TAT-Gel conjugates into MCF-7 cells. The left two panels provide confocol microphotograph sections of DIC image and corresponding fluorescent images, whereas right panels show FACS results (ordinate, number of cells, abcissa, fluorescent intensity). Cells were treated with FITC-labeled gelonin (FIG. 7A); TAT-Gel (FIG. 7B); TAT-Gel+heparin (FIG. 7C); and TAT-Gel+heparin and then+protamine (FIG. 7D). Protein concentration was adjusted to 10 nM, and the incubation time was 1 hr at 37° C.
In certain embodiments, the TAT-mediated cell internalization and the cytotoxicity of TAT-Gel were examined in vitro in MCF-7 and CT-26 cell cultures. The membrane-transducing ability of the TAT-Gel conjugates was determined using fluorescence (FITC)-labeled gelonin or TAT-Gel added to the culture media of MCF-7 cells, followed by analysis by both the fluorescence activated cell sorting (FACS) and confocol microscopy. […] On the other hand, almost all of the FITC labels were found inside, and specifically inside the cytosol (see confocol results), of all (˜100%) cells (see the FACS data) within one hour of incubation of the cells with the TAT-Gel conjugates (FIG. 7B). Considering the fact that gelonin exerts its cytotoxic activity via binding with ribosomes and cleaving RNA, this cytosolic localization actually yields beneficial therapeutic affects. […]

A further series concerns murine tumor tissues. Briefly: Tumor penetration of rhodamine-labeled gelonin and TAT-Gel. It is filed as in vivo, mice. The note with it: tumors isolated at 10 hrs after injection. The text has this:
FIGS. 18A and 18B show tumor penetration of rhodamine-labeled TAT-Gel conjugates (FIG. 18A), and free gelonin (FIG. 18B). Tumors were isolated at 10 hrs after injection of the rhodamine-labeled TAT-Gel conjugate or free gelonin and then photographed.
To further confirm that TAT-Gel conjugates penetrate into tumor tissues, rhodamine-labeled gelonin was used in several additional in vivo studies. […] The extremely efficient tumor penetration and widespread drug distribution capabilities of the compositions and methods of the present invention are of great significance to anticancer therapy.

Another series has as its system CT26 colon carcinoma. Briefly: Tumor regression in CT-26 tumor-bearing mice, intratumoral injection (gelonin series). It is filed as in vivo, BALB/c mice.
The test system of series [4] is CT-26 murine adenocarcinoma colon cancer cells. The series can be described thus: MTT cytotoxicity in CT-26 cells in log-phase culture. It is filed as cell-based. The settings on record: CT-26, MTT.
Protocol: Various doses of each test compound were added to 96-well culture plates containing approximately 5,000 cells/well. The plates were incubated for 48 hrs at 37° C. under an atmosphere of 5% CO2 in humidified air. Remaining cells were assessed using MTT and compared to untreated control wells. Values shown are means±standard deviation.
Cytotoxicity was measured as described in FIG. 8.
Various doses of each compound were added to 96-well culture plates containing approximately 5,000 cells/well. The plates were incubated for 48 hrs at 37° C. under an atmosphere of 5% CO2 in humidified air in an incubator. Test cells were assessed by MTT assay and then compared to untreated cells in control wells. Values are represented as means±standard deviation. Each experiment was performed in triplicate.
In additional embodiments, the cytotoxicity of gelonin and the TAT-Gel conjugates were examined in CT-26 murine adenocarcinoma colon cancer cells in log-phase culture.

“And” between values parts separate entries of the source, which are not always exact repeats. Identical values can stand only once.

On to `COc1cccc2c1C(=O)c1c(O)c3c(c(O)c1C2=O)C[C@@](O)(C(=O)CO)C[C@@H]3O[C@H]1C[C@H](N)[C@H](O)[C@H](C)O1` [Dox, doxorubicin], for which the values for the IC50 in the series on MCF7/ADR cells (Verapamil (10 μM)) and in the series on MCF7/ADR cells (without verapamil) were 6.7 µM and 45.2 µM, respectively. In the series on MCF7/ADR cells (MCF7/MDR cells), the “IC50 of free doxorubicin relative to Dox-TAT conjugates” value is given as about 8 fold. Also, the “amount of doxorubicin seen in cells by fluorescence microscopy” value in the series on MCF7/ADR cells (MDR cells) was “negligible amount”.
As for `N[C@@H](Cc1ccc(O)c(O)c1)C(=O)O` [levodopa, L-3,4-dihydroxy-phenylalanine], in series [1], the “fraction that penetrates the CNS” value was “less than 1%”.
In the series on implanted tumors, RNase yielded an average tumor mass of 2.92 ± 0.47 g.
As for “TAT: highly cationic 11 amino acid section of the TAT-peptide (YGRKKRRQRRR; SEQ ID NO:6)”, in the series on MCF-7 cells [2] (MCF-7), the “rate of cellular uptake (comparison in words)” value is listed as “slightly faster cellular uptake than LMWP”. Further, the “incubation time at which cellular concentration reached a maximum” value with MCF-7 cells [2] (MCF-7, FITC-labeled peptides) was determined as 30 min. Besides, in the series with MCF-7 cells [2] (MCF-7, after 30 min incubation), the subcellular localization entry is recorded as “primarily localizes in the nucleus”. The “translocation of rhodamine-labeled gelonin into cells” value in the series on CT-26 cells is listed as “capable of translocating gelonin”.
As to gelonin, the “cellular uptake (confocal and FACS, in words)” value with MCF-7 cells [3] is reported as “virtually no cellular uptake”. The “tumor penetration (rhodamine staining of excised tumor)” value in the series on murine tumor tissues is given as “virtually no staining or only sporadic weak staining”. Besides, in the series on CT26 colon carcinoma (excised thirty days (four weeks) after initial treatment, intratumoral, 9 treatments), the average tumor mass is 2.63 ± 0.5 g and 2.62 ± 0.53 g. Besides, the “gross appearance of tumor after treatment” value in the series with CT26 colon carcinoma (two and four weeks after intratumoral injection) is “not cytotoxic to the tumor”. In addition, the entries for the “cytotoxicity / inhibition of cell growth (in words)” value in [4] and in [4] (listed as Gelonin) were “did not induce cell death” and “did not display any detectable inhibition on cell growth”, respectively.

By IC50 is commonly meant the midpoint of a concentration-inhibition curve. Read a low IC50 as greater potency.

These data come from patent publication US7329638B2, “Drug delivery compositions” (priority 2003, dated 2008).
